Assay results from PMC10066365, “Nemacol is a small molecule inhibitor of C. elegans vesicular acetylcholine transporter with anthelmintic potential” (Nature Communications, 2023).
Values joined by “and” are separate entries in the source; they are usually repeats but may differ in a detail not shown here. Equal values may be shown once. Read-outs that look alike come from different tables or passages of the source.

Legend:
[1] = system: C. elegans; test: Suppression of trichlorfon (AChE inhibitor) paralysis, double dose-response, scored after 80 min; type: in vivo, Caenorhabditis elegans; settings: wild-type, bio rep 1-3
[2] = target: T1, rat VAChT (Rattus norvegicus, UniProt Q62666); test: [3H]Vesamicol competitive radioligand binding, PC12 cells expressing ratVAChT; settings: for specific binding in % of total binding (corrected by nonspecific binding NB), mean: rVAChT-PC12, 21°C, 1% DMSO
T1 construct: expressed in transfected cells; host or cells: rat PC12 (PC12 A123.7) cells, stably transfected; shared by Dr. Ali Roghani (Texas Tech University)
T1 sequence (Q62666 1-530): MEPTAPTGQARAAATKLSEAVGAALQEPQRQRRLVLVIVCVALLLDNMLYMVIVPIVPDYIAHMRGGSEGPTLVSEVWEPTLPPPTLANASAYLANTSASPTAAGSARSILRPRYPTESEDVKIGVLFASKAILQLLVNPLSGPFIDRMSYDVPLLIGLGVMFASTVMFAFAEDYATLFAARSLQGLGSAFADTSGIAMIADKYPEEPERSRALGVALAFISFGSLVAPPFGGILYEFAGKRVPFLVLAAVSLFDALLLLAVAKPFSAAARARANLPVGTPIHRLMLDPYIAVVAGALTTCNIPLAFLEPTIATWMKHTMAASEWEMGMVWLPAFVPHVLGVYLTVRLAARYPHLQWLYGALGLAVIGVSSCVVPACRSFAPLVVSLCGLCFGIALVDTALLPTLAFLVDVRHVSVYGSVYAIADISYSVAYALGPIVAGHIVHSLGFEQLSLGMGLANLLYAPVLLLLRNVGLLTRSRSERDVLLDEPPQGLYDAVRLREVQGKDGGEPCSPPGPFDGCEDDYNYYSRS

[3] = system: C. elegans unc-17 mutants; settings: 60 min
Experimental: Significance was calculated using Fisher’s method (one-sided comparisons; see 'Methods'). […] Worms were incubated on the plates for 60 min.
Locomotor phenotype analyses were done in 24-well plates with 1 mL of MYOB substrate (27.5 g Trizma HCl, 12 g Trizma Base, 230 g bacto tryptone, 10 g NaCl, 0.4 g cholesterol (95%)) seeded with 25 µL of OP50 Escherichia coli on each well. Each compound was added to the MYOB substrate before pouring to achieve the desired final concentrations of 30 µM or 60 µM after diffusion through the media. Synchronized young adult worms are transferred into each well using a platinum wire pick. A Leica MZ75 stereomicroscope was used to visualize the movement of worms on the solid substrate. The specific dominant locomotor phenotype (i.e. ‘Punc’, ‘paralyzed’, ‘coiler’ or ‘wild-type locomotion’) was scored after the touch on the head with a platinum wire over a ~3–5 s of observation. […] Coiled animals were not scored as paralyzed despite sometimes not responding to light touch.

[4] = unc-17 (e245), 15 µM, adult worms, average of 3 biological repeats
[5] = unc-17 (e245), 30 µM, adult worms, average of 3 biological repeats
[6] = unc-17 (e245), 60 µM, adult worms, average of 3 biological repeats
[7] = unc-17 (e245), 15 µM, single Bio Rep
[8] = unc-17 (e245), 30 µM, single Bio Rep
[9] = unc-17 (e245), 60 µM, single Bio Rep
[10] = unc-17 (e327), 15 µM, single Bio Rep

SMILES: O=[N+]([O-])c1ccc(N2CCN(CC3CCCCC3)CC2)cc1 [Nemacol-1]
- % para (percentage of animals able to adopt a clear sinusoidal wave pattern upon touch on the nose) ([1]; Nemacol-1 3.75 uM + trichlorfon 0 uM): 100%
- % para (percentage of animals able to adopt a clear sinusoidal wave pattern upon touch on the nose) ([1]; Nemacol-1 3.75 uM + trichlorfon 25 uM): 96.4286% and 92.8571% and 100%
- % para (percentage of animals able to adopt a clear sinusoidal wave pattern upon touch on the nose) ([1]; Nemacol-1 3.75 uM + trichlorfon 50 uM): 96.4286% and 85.7143% and 75%
- % para (percentage of animals able to adopt a clear sinusoidal wave pattern upon touch on the nose) ([1]; Nemacol-1 3.75 uM + trichlorfon 100 uM): 28.5714% and 32.1429% and 39.2857%
- % para (percentage of animals able to adopt a clear sinusoidal wave pattern upon touch on the nose) ([1]; Nemacol-1 3.75 uM + trichlorfon 200 uM): 10.7143% and 7.143%
- % para (percentage of animals able to adopt a clear sinusoidal wave pattern upon touch on the nose) ([1]; Nemacol-1 3.75 uM + trichlorfon 400 uM): 3.571% and 0%
- % para (percentage of animals able to adopt a clear sinusoidal wave pattern upon touch on the nose) ([1]; Nemacol-1 3.75 uM + trichlorfon 800 uM): 0%
- % para (percentage of animals able to adopt a clear sinusoidal wave pattern upon touch on the nose) ([1]; Nemacol-1 15 uM + trichlorfon 0 uM): 96.4286% and 100%
- % para (percentage of animals able to adopt a clear sinusoidal wave pattern upon touch on the nose) ([1]; Nemacol-1 15 uM + trichlorfon 25 uM): 100%
- % para (percentage of animals able to adopt a clear sinusoidal wave pattern upon touch on the nose) ([1]; Nemacol-1 15 uM + trichlorfon 50 uM): 92.8571% and 46.4286% and 64.2857%
- % para (percentage of animals able to adopt a clear sinusoidal wave pattern upon touch on the nose) ([1]; Nemacol-1 15 uM + trichlorfon 100 uM): 82.1429% and 53.5714% and 71.4286%
- % para (percentage of animals able to adopt a clear sinusoidal wave pattern upon touch on the nose) ([1]; Nemacol-1 15 uM + trichlorfon 400 uM): 14.2857% and 7.143%
- % para (percentage of animals able to adopt a clear sinusoidal wave pattern upon touch on the nose) ([1]; Nemacol-1 15 uM + trichlorfon 800 uM): 0% and 3.571%
- % para (percentage of animals able to adopt a clear sinusoidal wave pattern upon touch on the nose) ([1]; Nemacol-1 30 uM + trichlorfon 0 uM): 100%
- % para (percentage of animals able to adopt a clear sinusoidal wave pattern upon touch on the nose) ([1]; Nemacol-1 30 uM + trichlorfon 25 uM): 100%
- % para (percentage of animals able to adopt a clear sinusoidal wave pattern upon touch on the nose) ([1]; Nemacol-1 30 uM + trichlorfon 50 uM): 85.7143% and 89.2857% and 92.8571%
- % para (percentage of animals able to adopt a clear sinusoidal wave pattern upon touch on the nose) ([1]; Nemacol-1 30 uM + trichlorfon 100 uM): 78.5714% and 82.1429%
- % para (percentage of animals able to adopt a clear sinusoidal wave pattern upon touch on the nose) ([1]; Nemacol-1 30 uM + trichlorfon 200 uM): 53.5714% and 32.1429% and 39.2857%
- % para (percentage of animals able to adopt a clear sinusoidal wave pattern upon touch on the nose) ([1]; Nemacol-1 30 uM + trichlorfon 800 uM): 3.571%
- % para (percentage of animals able to adopt a clear sinusoidal wave pattern upon touch on the nose) ([1]; Nemacol-1 60 uM + trichlorfon 0 uM): 50% and 82.1429% and 71.4286%
- % para (percentage of animals able to adopt a clear sinusoidal wave pattern upon touch on the nose) ([1]; Nemacol-1 60 uM + trichlorfon 25 uM): 85.7143% and 75% and 78.5714%
- % para (percentage of animals able to adopt a clear sinusoidal wave pattern upon touch on the nose) ([1]; Nemacol-1 60 uM + trichlorfon 50 uM): 78.5714% and 57.1429% and 67.8571%
- % para (percentage of animals able to adopt a clear sinusoidal wave pattern upon touch on the nose) ([1]; Nemacol-1 60 uM + trichlorfon 100 uM): 53.5714% and 67.8571%
- % para (percentage of animals able to adopt a clear sinusoidal wave pattern upon touch on the nose) ([1]; Nemacol-1 60 uM + trichlorfon 200 uM): 35.7143% and 57.1429% and 50%
- % para (percentage of animals able to adopt a clear sinusoidal wave pattern upon touch on the nose) ([1]; Nemacol-1 60 uM + trichlorfon 800 uM): 3.571% and 7.143%
- % para (percentage of animals able to adopt a clear sinusoidal wave pattern upon touch on the nose) ([1]; Nemacol-1 […] + trichlorfon 25 uM): 100%
- % para (percentage of animals able to adopt a clear sinusoidal wave pattern upon touch on the nose) ([1]; Nemacol-1 […] + trichlorfon 800 uM): 0%
- activity ratio, mammalian VAChT Ki to C. elegans in vivo EC50 [2]: 0.11
- Ki ([2]; Ki, each of two biological replicates): 875 nM and 661 nM
- specific binding in % of total binding (corrected by nonspecific binding NB), mean ([2]; competitor 1.00E-04 M, experiment 2019-11-21, 2.20E-09 M 3H-vesamicol, 90 min): 2.84%
- specific binding in % of total binding (corrected by nonspecific binding NB), mean ([2]; competitor 1.00E-05 M, experiment 2019-10-30, 2.92E-09 M 3H-vesamicol, 120 min): 34%
- specific binding in % of total binding (corrected by nonspecific binding NB), mean ([2]; competitor 1.00E-05 M, experiment 2019-11-21, 2.20E-09 M 3H-vesamicol, 90 min): 10%
- specific binding in % of total binding (corrected by nonspecific binding NB), mean ([2]; competitor 1.00E-06 M, experiment 2019-10-30, 2.92E-09 M 3H-vesamicol, 120 min): 51%
- specific binding in % of total binding (corrected by nonspecific binding NB), mean ([2]; competitor 1.00E-06 M, experiment 2019-11-21, 2.20E-09 M 3H-vesamicol, 90 min): 52%
- specific binding in % of total binding (corrected by nonspecific binding NB), mean ([2]; competitor 1.00E-07 M, experiment 2019-10-30, 2.92E-09 M 3H-vesamicol, 120 min): 86%
- specific binding in % of total binding (corrected by nonspecific binding NB), mean ([2]; competitor 1.00E-07 M, experiment 2019-11-21, 2.20E-09 M 3H-vesamicol, 90 min): 82%
- specific binding in % of total binding (corrected by nonspecific binding NB), mean ([2]; competitor 1.00E-08 M, experiment 2019-10-30, 2.92E-09 M 3H-vesamicol, 120 min): 94%
- specific binding in % of total binding (corrected by nonspecific binding NB), mean ([2]; competitor 1.00E-08 M, experiment 2019-11-21, 2.20E-09 M 3H-vesamicol, 90 min): 90%
- specific binding in % of total binding (corrected by nonspecific binding NB), mean ([2]; competitor 1.00E-09 M, experiment 2019-10-30, 2.92E-09 M 3H-vesamicol, 120 min): 96%
- specific binding in % of total binding (corrected by nonspecific binding NB), mean ([2]; competitor 1.00E-09 M, experiment 2019-11-21, 2.20E-09 M 3H-vesamicol, 90 min): 88%
- specific binding in % of total binding (corrected by nonspecific binding NB), mean ([2]; competitor 1.00E-10 M, experiment 2019-10-30, 2.92E-09 M 3H-vesamicol, 120 min): 95%
- specific binding in % of total binding (corrected by nonspecific binding NB), mean ([2]; competitor 1.00E-10 M, experiment 2019-11-21, 2.20E-09 M 3H-vesamicol, 90 min): 92%
- specific binding in % of total binding (corrected by nonspecific binding NB), mean ([2]; competitor 1.00E-11 M, experiment 2019-10-30, 2.92E-09 M 3H-vesamicol, 120 min): 94%
- rat VAChT Ki fold difference to vesamicol ([2]; fold less affinity than vesamicol): 37 fold
- Ki ([2]; in vitro mammalian VAChT Ki): 770 nM
- Ki ([2]; ratVAChT Ki, [3H]Vesamicol displacement, mean): 768 nM
- Fraction Coiled [3, 4]: 0.83
- Fraction Jerky-Unc [3, 4]: 0.17
- Fraction No Phenotype [3, 4]: 0.00
- Fraction Parayzed [3, 4]: 0.00
- Fraction Coiled [3, 5]: 0.78
- Fraction Jerky-Unc [3, 5]: 0.13
- Fraction No Phenotype [3, 5]: 0.00
- Fraction Parayzed [3, 5]: 0.09
- Fraction Coiled [3, 6]: 0.80
- Fraction Jerky-Unc [3, 6]: 0.0556
- Fraction No Phenotype [3, 6]: 0.00
- Fraction Parayzed [3, 6]: 0.15
- Fraction Coiled, Averages of 3 biological repeats ([3]; unc-17 (e245), 15 µM): 0.78
- Fraction Jerky-Unc, Averages of 3 biological repeats ([3]; unc-17 (e245), 15 µM): 0.19
- Fraction No Phenotype, Averages of 3 biological repeats ([3]; unc-17 (e245), 15 µM): 0.00
- Fraction Parayzed, Averages of 3 biological repeats ([3]; unc-17 (e245), 15 µM): 0.037
- C1 (loose coil) worm count [3, 7]: 4 and 2 and 3
- C2 (tight coil) worm count [3, 7]: 11 and 12 and 10
- Fraction Coiled [3, 7]: 0.72 and 0.83 and 0.78
- Fraction Jerky-Unc [3, 7]: 0.1667 and 0.2222
- Fraction No Phenotype [3, 7]: 0.00
- J (jerky-unc) worm count [3, 7]: 3 and 4
- NP (no phene) worm count [3, 7]: 0
- Fraction Coiled, Averages of 3 biological repeats ([3]; unc-17 (e245), 30 µM): 0.87
- Fraction Jerky-Unc, Averages of 3 biological repeats ([3]; unc-17 (e245), 30 µM): 0.0741
- Fraction No Phenotype, Averages of 3 biological repeats ([3]; unc-17 (e245), 30 µM): 0.00
- Fraction Parayzed, Averages of 3 biological repeats ([3]; unc-17 (e245), 30 µM): 0.0556
- C1 (loose coil) worm count [3, 8]: 2 and 1
- C2 (tight coil) worm count [3, 8]: 14 and 15 and 13
- Fraction Coiled [3, 8]: 0.83 and 0.89
- Fraction No Phenotype [3, 8]: 0.00
- NP (no phene) worm count [3, 8]: 0
- Fraction Coiled, Averages of 3 biological repeats ([3]; unc-17 (e245), 60 µM): 0.76
- Fraction Jerky-Unc, Averages of 3 biological repeats ([3]; unc-17 (e245), 60 µM): 0.037
- Fraction No Phenotype, Averages of 3 biological repeats ([3]; unc-17 (e245), 60 µM): 0.00
- Fraction Parayzed, Averages of 3 biological repeats ([3]; unc-17 (e245), 60 µM): 0.20
- C1 (loose coil) worm count [3, 9]: 4 and 2
- C2 (tight coil) worm count [3, 9]: 12 and 8 and 11
- Fraction Coiled [3, 9]: 0.83 and 0.89 and 0.56
- Fraction No Phenotype [3, 9]: 0.00
- NP (no phene) worm count [3, 9]: 0
- Fraction Coiled, Averages of 3 biological repeats ([3]; unc-17 (e327), 15 µM): 0.77
- Fraction Jerky-Unc, Averages of 3 biological repeats ([3]; unc-17 (e327), 15 µM): 0.15
- Fraction No Phenotype, Averages of 3 biological repeats ([3]; unc-17 (e327), 15 µM): 0.00
- Fraction Parayzed, Averages of 3 biological repeats ([3]; unc-17 (e327), 15 µM): 0.08
- C1 (loose coil) worm count [3, 10]: 3 and 4
- C2 (tight coil) worm count [3, 10]: 10 and 12 and 8
- Fraction Coiled [3, 10]: 0.75 and 0.72 and 0.83
